The text below walks through data of patent US8658591B2, “Multi-LEU peptides and analogues thereof as selective PACE4 inhibitors and effective antiproliferative agents” (priority 2008, dated 2014).

*: point of attachment. Cholyl = C[C@H](CCC(=O)*)[C@H]1CC[C@H]2[C@@H]3[C@H](O)C[C@@H]4C[C@H](O)CC[C@]4(C)[C@H]3C[C@H](O)[C@]12C

Test [1] relates to prostatic cell line DU145. Briefly: MTT cell proliferation index, DU145. It counts as cell-based, human. Conditions: for Cell proliferation index: control = 100%, MTT after 48 hours. How it is done:
The effects of the PACE4 inhibitors on cell proliferation were evaluated. MTT assay was used to evaluate the effects of PACE4 inhibitors on cell proliferation. MTT (3-(4,5-Dimethylthiazol-2-yl)-2,5-diphenyltetrazolium bromide) assay is a standard colorimetric assay for measuring cellular proliferation. Yellow MTT is reduced to purple formazan in the mitochondria of living cells. This reduction takes place only when mitochondrial reductase enzymes are active. Conversion is directly related to the number of viable cells. The MTT assay is quantitative and more sensitive than viability using trypan blue and can also be adapted to 96 well formats, whereas trypan blue tests must be read individually. Because the MTT assay requires less cell manipulation than [^3H]thymidine incorporation assays (no cell harvesting or medium changes are necessary), the possibility of error is reduced and the standard deviation values are lower. […] Other assays also known can be used to determine the effects of an inhibitor on the proliferation of a cell.
The index of cellular proliferation of cells treated with the ML and acetyl-ML (CH3CO—NH-[…]-CONH2 (SEQ ID NO: 5), see Table 2) peptides were measured using the colorimetric MTT assay (thiazolyl blue tetrazolium bromide; Sigma-Aldrich). Briefly, cells were seeded in 96-well plate (BD Biosciences) in triplicate with 100 μl of a 3.5×10^4 cells/ml cell suspension in complete growth medium. The following day, cells were carefully washed twice with PBS and media were replaced with 100 μl of either RPMI or conditioned growth media. Conditioned growth medium preparation consists in 1.2×10^5 cells seeded in 6-well plates with complete growth media. The next day, cells are washed twice with PBS and the media are replaced with 1 ml RPMI growth medium. 48 hours later, the conditioned media are collected, filtered through […] syringe filter units and incubated on different cell lines.
48 hours later, 20 μl of a MTT solution (5 mg/ml in PBS 1×) was added to each well for 4.5 h at 37° C./5% CO2. The media was then discarded and the cells were solubilized with 100 μl isopropanol/0.04 N HCl solution. The absorbance was measured at a wavelength of 550 nm with a reference at 650 nm in microplate reader (SpectraMax190™; Molecular Devices).

The subject of test [2] is DU145 cells implanted subcutaneously. Briefly: DU145 xenograft tumor growth in nude mice. The test is classed as in vivo, Nu/Nu mice. Conditions: intra-tumoral 30 mg/kg once every 2 days, start at 50 mm^3 twenty days after implantation; vehicle control 160 mm^3. From the text:
To test the effects of PACE4 inhibitors in vivo, a nude mouse model was used in order to validate PACE4's role in tumor progression within an integrated system. […] The genetic basis of the nude mouse mutation is a disruption of the Foxn1 gene. The nude mouse can receive many different types of tissue and tumor grafts, as it mounts no rejection response. These xenografts are commonly used to test new methods of treating tumors. Nude mice were used to test the tumor progression of control DU145 cells compared to PACE4 silenced DU145 cells (clone 4-2) (FIG. 11). Control tumor received vehicle (DMSO) injections. Control tumor continued their growth pattern, reaching an average size of 160 mm^3, while treated tumors only reached a size of 75 mm^3 (FIG. 11A). Consequently, PACE4 inhibition by the specific inhibitors described herein reduces tumors growth. The nude mouse model is well known and extensively tested (Naomoto et al., 1987, J. Cancer Res. Clin. Oncol., 113: 544-549; Taetle et al., 1987 Cancer Treat. Rep. 71: 297-304).
DU145 cells were implanted subcutaneously (sc) at two sites on the backs of Nu/Nu mice, which lack an immune system. […] The genetic basis of the nude mouse mutation is a disruption of the Foxn1 gene. The nude mouse can receive many different types of tissue and tumor grafts, as it mounts no rejection response. […]

Consider “Cholyl-NH-LLLLRVKR-NH2 (Cholyl-LLLLRVKR-NH2) [cholyl ML]”, for which the “effect on cell proliferation index, in words” value in test [1] (DU145) was “more potent effects than ML or acetyl-ML peptides”. Moreover, the Cell proliferation index in test [1] (DU145, 1 μM peptide) was found to be 86.65%; in test [1] (DU145, 10 μM peptide), 38.70%; in test [1] (DU145, 100 μM peptide), 4.36%. Besides, the “average tumor size reached” value in test [2] came out at 75 mm^3.
